Data: patent US11052098B2, “Composition containing araloside for external application to skin” (Amorepacific Corporation, priority 2015, dated 2021)

Assays:
keratin 1 = assay: Recovery of keratin 1 marker gene expression in fine dust-treated keratinocytes (quantitative real-time PCR); format: cell-based; details: Human neonatal epidermal keratinocytes; 100 ppm fine dust 24 hours, then 50 ppm araloside for 5 days; FIG. 1; compared to fine dust only and untreated group
Method: (§1) Human neonatal epidermal keratinocytes (HEK; Lonza, NHEK-Neo-Neonatal Normal. Human Epidermal Keratinocytes, Pooled) were dispensed in medium (KBM-gold, Lonza) in a 6-well plate at a density of 1×10^5 cells per well and cultured at 37° C. for 24 hours. 100 ppm of fine dust was treated in the well and subjected to stimulation for 24 hours, which was then treated with medium (KBM-gold, Lonza) containing 50 ppm each of […] and araloside X and incubated at 37° C. for 5 days. Then, RNA was extracted from the HEK cells incubated for 5 days using an RNeasy mini kit (Qiagen), and then a cDNA was synthesized through an RT-PCR process using a Superscript III kit (Invitrogen). To confirm the expression level of keratin 1 and keratin 10 genes, a probe (TaqMan™ fluorogenic probe, Hs00196158_m1, Hs00166289_m1) was used to conduct the quantitative real-time PCR process and observe the expression behavior of keratin 1 and keratin. 10. The control group used an untreated group not treated with fine dust and also not treated with araloside V, araloside VII and araloside X; and fine dust-treated group treated with fine dust but not, treated with araloside V, araloside VII and araloside X.

keratin 10 = assay: Recovery of keratin 10 marker gene expression in fine dust-treated keratinocytes (quantitative real-time PCR); format: cell-based; details: Human neonatal epidermal keratinocytes; 100 ppm fine dust 24 hours, then 50 ppm araloside for 5 days; FIG. 1; compared to fine dust only and untreated group
Method: as §1

IL8 = IL8 protein production in fine dust-stimulated human fibroblasts (ELISA); format: cell-based; details: 100 ppm fine dust 24 hours, then sample 50 ppm for 48 hours, culture solution ELISA, fine dust only = 246
Method: (§2) Human fibroblasts (PromoCell, Germany) were inoculated in a 6-well plate at a concentration of 1×10^5 cells, and cultured in an incubator (37° C., 5% CO2) for 24 hours. 100 ppm of fine dust was treated in the well and subjected to stimulation for 24 hours, which was then treated with medium containing 50 ppm each of araloside V, araloside VII and araloside X and allowed to react for 48 hours. After completion of the reaction, the culture solution was collected and subjected to ELISA analysis. At this time, α-bisabolol, a substance frequently used as an anti-inflammatory and irritation-mitigating agent, was used as a control group. Measurement of the production amount of IL8 and IL1B proteins was carried out using a ThermoFisher's kit, and experiments were conducted according to the method described in the company's manual.

IL1B = IL1B protein production in fine dust-stimulated human fibroblasts (ELISA); format: cell-based; details: 100 ppm fine dust 24 hours, then sample 50 ppm for 48 hours, culture solution ELISA, fine dust only = 311
Method: as §2

MMP-1 = MMP-1 inhibitory effect in fine dust- and UVB-treated Hs68 fibroblasts (MMP-1 assay kit); format: cell-based, Human; details: 100 ppm fine dust 24 hours, UVB 30 mJ/M^2, then 50 ppm araloside for 48 hours, FIG. 2, compared to fine dust only and untreated group
Method: Human neonatal fibroblast HS68 was purchased from Cascade Biologics (Invitrogen, USA) and used. Hs68 was cultured using DMEM medium supplemented with 10% FBS (fetal bovine serum), 50 U/ml of penacillin and 50 μg/ml of streptomycin. Cells were cultured under the conditions of 37° C., 5% CO2. The Hs68 was added to a 12-well plate at a concentration of 7.5×10^4 cells/well and cultured overnight. On the next day, the medium was replaced with FBS-free medium having a fine dust concentration of 100 ppm and cultured for 24 hours. After irradiating with UVB 30 mJ/M^2, the araloside V, araloside VII, and araloside X were treated at a concentration of 50 ppm for 48 hours, respectively. After culture, the medium was collected and the production amount of MMP-1 was measured using an MMP-1 assay kit (GE healthcare). The control group used an untreated group not treated with fine dust and also not treated with araloside V, araloside VII and araloside X; and a fine dust-treated group treated with fine dust but not treated with araloside V, araloside VII and araloside X.

[1] = tested on: Reactive Oxygen Species (ROS); assay: Inhibitory effect on reactive oxygen species (ROS) production in fine dust-stimulated keratinocytes (DCF-DA fluorescence); format: cell-based; details: human keratinocytes; sample 50 ppm for 2 hours, then treated with 100 ppm of fine dust; vehicle control = 100, fine dust only = 384
Method: 5×10^4 Keratinocytes isolated from human epidermal tissue were added to each well of a 24-well plate and allowed to adhere for 24 hours. Then, […] and araloside X were treated at 50 ppm, respectively. At this time, for comparison, a control group (untreated group) was not treated with araloside V, araloside VII and araloside X, and a positive control group was treated with a known antioxidant ascorbic acid. After 2 hours, the culture solution was removed, and then 100 μl of phosphate buffered saline (PBS) containing 100 ppm of fine dust was added to each well. Then, the amount of active oxygen species increased by fine dust stimulation was quantified. The amount of ROS was quantified with reference to Tan's method of measuring the fluorescence of DCF-DA (dichlorofluorescin diacetate) oxidized by ROS (Tan et al., 1998, J. Cell Biol. Vol. 141, pp 1423-1432).

Compound: CC1(C)CC[C@]2(C(=O)O[C@@H]3O[C@H](CO)[C@@H](O)[C@H](O)[C@H]3O)CC[C@]3(C)C(=CC[C@@H]4[C@@]5(C)CC[C@H](O[C@@H]6O[C@H](CO)[C@@H](O)[C@H](O[C@@H]7O[C@H](CO)[C@@H](O)[C@H](O)[C@H]7O)[C@H]6O[C@@H]6O[C@H](CO)[C@@H](O)[C@H](O)[C@H]6O)[C@@](C)(CO)[C@@H]5CC[C@]43C)[C@@H]2C1 [araloside VII]
- expression of keratin 1 gene (keratin 1): a level equal to or higher than that in the untreated group
- expression of keratin 10 gene (keratin 10): a level equal to or higher than that in the untreated group
- IL8 (production amount of protein) (IL8): 184 pg/mL
- IL1B (production amount of protein) (IL1B): 256 pg/mL
- MMP-1 activity (production amount of MMP-1) (MMP-1): to about the level of MMP-1 activity in the untreated (control) group
- amount of ROS, ratio to control group treated with only vehicle (=100) [1]: 105

Compound: CC1(C)CC[C@]2(C(=O)O[C@@H]3O[C@H](CO)[C@@H](O)[C@H](O)[C@H]3O)CC[C@]3(C)C(=CC[C@@H]4[C@@]5(C)CC[C@H](O[C@H]6O[C@H](CO)[C@@H](O)[C@@H](O[C@@H]7O[C@H](CO)[C@@H](O)[C@H](O)[C@H]7O)[C@H]6O[C@@H]6O[C@H](CO)[C@@H](O)[C@H](O)[C@H]6O)C(C)(C)[C@@H]5CC[C@]43C)[C@@H]2C1 [araloside V]
- expression of keratin 1 gene (keratin 1): a level equal to or higher than that in the untreated group
- expression of keratin 10 gene (keratin 10): a level equal to or higher than that in the untreated group
- IL8 (production amount of protein) (IL8): 189 pg/mL
- IL1B (production amount of protein) (IL1B): 243 pg/mL
- MMP-1 activity (production amount of MMP-1) (MMP-1): to about the level of MMP-1 activity in the untreated (control) group
- amount of ROS, ratio to control group treated with only vehicle (=100) [1]: 110

Compound: CC1(C)CC[C@]2(C(=O)O[C@@H]3O[C@H](CO)[C@@H](O)[C@H](O)[C@H]3O)CC[C@]3(C)C(=CC[C@@H]4[C@@]5(C)CC[C@H](O[C@@H]6O[C@H](CO)[C@@H](O)[C@H](O[C@@H]7O[C@H](CO)[C@@H](O)[C@H](O[C@@H]8O[C@H](CO)[C@@H](O)[C@H](O)[C@H]8O)[C@H]7O)[C@H]6O[C@@H]6O[C@H](CO)[C@@H](O)[C@H](O)[C@H]6O)C(C)(C)[C@@H]5CC[C@]43C)[C@@H]2C1 [araloside X]
- expression of keratin 1 gene (keratin 1): a level equal to or higher than that in the untreated group
- expression of keratin 10 gene (keratin 10): a level equal to or higher than that in the untreated group
- IL8 (production amount of protein) (IL8): 187 pg/mL
- IL1B (production amount of protein) (IL1B): 252 pg/mL
- MMP-1 activity (production amount of MMP-1) (MMP-1): to about the level of MMP-1 activity in the untreated (control) group
- amount of ROS, ratio to control group treated with only vehicle (=100) [1]: 102

Compound: O=C1O[C@H]([C@@H](O)CO)C(O)=C1O [ascorbic acid, reference compound]
- amount of ROS, ratio to control group treated with only vehicle (=100) [1]: 200

Compound: α-bisabolol [reference compound]
- IL8 (production amount of protein) (IL8): 180 pg/mL
- IL1B (production amount of protein) (IL1B): 214 pg/mL
